Data taken from ChEMBL document CHEMBL2390821, “Flaxseed (Linum usitatissimum L.) extract as well as (+)-secoisolariciresinol diglucoside and its mammalian derivatives are potent inhibitors of α-amylase activity” (Bioorg Med Chem Lett, 2013).
Activity calls are given as the source filed them. The rule behind the calls is not given here.

How the values were obtained:
[1] = Inhibition of pig pancreas soluble alpha-amylase using 4-nitrophenyl-alpha-D-maltopentaoside as substrate after 30 mins by spectrophotometry; design: species or system Sus scrofa
[2] = organism: Rattus norvegicus; assay: Inhibition of immobilized rat intestinal alpha-glucosidase using 4-nitrophenyl-alpha-D-glucopyranoside as substrate assessed as enzyme activity after 30 mins by spectrophotometry relative to control; design: concentration or dose not given beside the values
[3] = organism: Sus scrofa; assay: Mixed-type inhibition of pig pancreas soluble alpha-amylase using 4-nitrophenyl-alpha-D-maltopentaoside as substrate assessed as formation of inactive enzyme-inhibitor complex after 30 mins by spectrophotometry
[4] = […] inhibition of pig pancreas soluble alpha-amylase using 4-nitrophenyl-alpha-D-maltopentaoside as substrate assessed as enzyme-inhibitor dissociation constant after 30 mins by double reciprocal plot method; design: species or system Sus scrofa
[5] = […] inhibition of pig pancreas soluble alpha-amylase using 4-nitrophenyl-alpha-D-maltopentaoside as substrate assessed as enzyme-substrate-inhibitor dissociation constant after 30 mins by double reciprocal plot method; design: species or system Sus scrofa

Row | SMILES | IC50 [1] [µM] | Activity [2] [%] | inhibition [3] | Ki [4] [µM] | Ki [5] [µM]
1 | COc1cc(C[C@H](CO[C@@H]2O[C@H](CO)[C@@H](O)[C@H](O)[C@H]2O)[C@@H](CO[C@@H]2O[C@H](CO)[C@@H](O)[C@H](O)[C@H]2O)Cc2ccc(O)c(OC)c2)ccc1O [(+)-SECOISOLARICIRESINOLDIGLUCOSIDE] | 15.7 | 74.3 |  |  | 
2 | C[C@H]1O[C@H](O[C@H]2[C@H](O)[C@@H](O)[C@@H](O[C@H]3[C@H](O)[C@@H](O)C(O)O[C@@H]3CO)O[C@@H]2CO)[C@H](O)[C@@H](O)[C@@H]1N[C@H]1C=C(CO)[C@@H](O)[C@H](O)[C@H]1O (some centres not stated) |  | 34.4 |  |  | 
3 | OC[C@@H](Cc1cccc(O)c1)[C@@H](CO)Cc1cccc(O)c1 [(+)-ENTERODIOL] | 8.6 | 69.9 | Active | 94.1 | 40.3
4 | COc1cc(C[C@@H](CO)[C@H](CO)Cc2ccc(O)c(OC)c2)ccc1O [(+)-SECOISOLARICIRESINOL] | 9.5 | 72.4 |  |  | 
5 | O=C1OC[C@@H](Cc2cccc(O)c2)[C@@H]1Cc1cccc(O)c1 [(+)-ENTEROLACTONE] | 10.9 | 73.9 |  |  | 
